Laboratory results taken from ChEMBL document CHEMBL3991601, “The target landscape of clinical kinase drugs” (Science, 2017).
Active and inactive are the calls of the source.

Columns and labels:
[1] = target: Serine/threonine-protein kinase PAK 4 (Homo sapiens, UniProt O96013)
[2] = target: Putative heat shock protein HSP 90-beta 2 (Homo sapiens, UniProt Q58FF8)
Actin-related protein 2 = Actin-related protein 2 (Homo sapiens, UniProt P61160)
[3] = target: T1, Ferrochelatase, mitochondrial (Homo sapiens, UniProt P22830)
T1 sequence (P22830 whole entry): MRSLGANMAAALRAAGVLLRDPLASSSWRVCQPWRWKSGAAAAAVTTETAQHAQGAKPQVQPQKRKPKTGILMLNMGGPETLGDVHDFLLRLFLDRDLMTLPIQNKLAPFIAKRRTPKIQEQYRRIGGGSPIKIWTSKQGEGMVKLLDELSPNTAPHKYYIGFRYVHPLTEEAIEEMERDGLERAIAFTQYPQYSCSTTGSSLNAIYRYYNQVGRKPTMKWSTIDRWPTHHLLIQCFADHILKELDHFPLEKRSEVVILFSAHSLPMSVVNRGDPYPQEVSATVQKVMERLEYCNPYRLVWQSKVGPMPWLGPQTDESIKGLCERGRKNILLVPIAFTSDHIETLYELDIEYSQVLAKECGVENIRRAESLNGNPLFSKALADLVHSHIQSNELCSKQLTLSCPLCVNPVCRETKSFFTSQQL

[4] = target: RAC-gamma serine/threonine-protein kinase (Homo sapiens, UniProt Q9Y243)
RAC-gamma serine/threonine-protein kinase, sequence (Q9Y243 whole entry): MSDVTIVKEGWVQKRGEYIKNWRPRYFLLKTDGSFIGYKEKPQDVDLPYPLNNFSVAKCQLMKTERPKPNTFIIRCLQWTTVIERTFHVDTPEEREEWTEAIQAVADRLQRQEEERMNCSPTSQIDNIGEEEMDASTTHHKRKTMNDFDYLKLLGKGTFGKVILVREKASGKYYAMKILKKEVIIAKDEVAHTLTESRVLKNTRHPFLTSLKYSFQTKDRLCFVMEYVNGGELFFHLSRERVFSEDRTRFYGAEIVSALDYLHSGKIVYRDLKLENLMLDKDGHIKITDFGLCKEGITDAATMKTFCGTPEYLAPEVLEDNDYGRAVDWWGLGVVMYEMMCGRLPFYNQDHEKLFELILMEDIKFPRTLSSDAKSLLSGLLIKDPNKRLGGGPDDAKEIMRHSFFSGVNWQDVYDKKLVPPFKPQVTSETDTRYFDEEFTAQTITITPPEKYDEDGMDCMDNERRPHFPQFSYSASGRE

Deoxycytidine kinase = Deoxycytidine kinase (Homo sapiens, UniProt P27707)
Deoxycytidine kinase, sequence (P27707 whole entry): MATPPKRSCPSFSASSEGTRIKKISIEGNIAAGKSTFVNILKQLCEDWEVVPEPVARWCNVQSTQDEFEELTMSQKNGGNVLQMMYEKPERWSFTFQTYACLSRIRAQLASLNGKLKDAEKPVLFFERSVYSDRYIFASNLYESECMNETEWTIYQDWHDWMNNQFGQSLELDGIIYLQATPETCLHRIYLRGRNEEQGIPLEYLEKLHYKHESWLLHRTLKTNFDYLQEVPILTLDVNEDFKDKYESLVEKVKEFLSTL

Ephrin type-A receptor 4 = Ephrin type-A receptor 4 (Homo sapiens, UniProt P54764)
Ephrin type-A receptor 4, sequence (P54764 whole entry): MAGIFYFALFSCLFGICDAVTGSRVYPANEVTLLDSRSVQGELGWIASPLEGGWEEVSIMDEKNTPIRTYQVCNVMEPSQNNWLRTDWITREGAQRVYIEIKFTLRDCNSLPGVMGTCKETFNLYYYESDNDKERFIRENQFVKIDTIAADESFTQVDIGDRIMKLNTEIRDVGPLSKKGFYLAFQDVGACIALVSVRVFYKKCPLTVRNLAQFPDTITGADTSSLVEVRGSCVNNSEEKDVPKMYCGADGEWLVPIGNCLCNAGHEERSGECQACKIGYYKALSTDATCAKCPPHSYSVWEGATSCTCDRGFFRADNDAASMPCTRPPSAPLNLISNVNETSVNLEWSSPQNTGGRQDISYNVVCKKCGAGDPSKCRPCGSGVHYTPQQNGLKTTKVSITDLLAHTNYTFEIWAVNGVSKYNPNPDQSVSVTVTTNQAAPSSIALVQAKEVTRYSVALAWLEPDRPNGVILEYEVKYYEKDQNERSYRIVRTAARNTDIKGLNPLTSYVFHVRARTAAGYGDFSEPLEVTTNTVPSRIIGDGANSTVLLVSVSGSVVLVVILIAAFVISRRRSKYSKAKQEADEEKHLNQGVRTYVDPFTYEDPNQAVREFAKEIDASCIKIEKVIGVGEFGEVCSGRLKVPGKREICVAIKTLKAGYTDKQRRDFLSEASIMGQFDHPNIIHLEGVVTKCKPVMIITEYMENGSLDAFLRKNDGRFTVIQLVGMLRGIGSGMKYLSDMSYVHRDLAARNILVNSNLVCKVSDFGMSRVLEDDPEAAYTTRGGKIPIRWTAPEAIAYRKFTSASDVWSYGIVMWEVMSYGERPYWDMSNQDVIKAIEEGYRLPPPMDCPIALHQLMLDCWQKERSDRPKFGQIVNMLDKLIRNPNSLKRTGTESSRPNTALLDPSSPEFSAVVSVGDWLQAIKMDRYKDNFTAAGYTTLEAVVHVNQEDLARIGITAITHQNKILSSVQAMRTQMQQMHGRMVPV

Adenosine kinase = Adenosine kinase (Homo sapiens, UniProt P55263)
Adenosine kinase, sequence (P55263 whole entry): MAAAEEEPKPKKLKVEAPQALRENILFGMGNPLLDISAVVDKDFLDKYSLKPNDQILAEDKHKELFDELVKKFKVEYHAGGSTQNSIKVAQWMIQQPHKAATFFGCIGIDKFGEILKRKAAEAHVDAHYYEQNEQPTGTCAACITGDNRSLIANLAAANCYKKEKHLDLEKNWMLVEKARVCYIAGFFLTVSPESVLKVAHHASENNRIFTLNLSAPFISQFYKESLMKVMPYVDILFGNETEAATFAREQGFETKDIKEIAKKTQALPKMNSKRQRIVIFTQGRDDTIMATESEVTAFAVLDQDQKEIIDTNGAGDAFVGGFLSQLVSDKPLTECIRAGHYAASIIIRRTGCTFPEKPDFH

[5] = target: T2, Mitogen-activated protein kinase 15 (Homo sapiens, UniProt Q8TD08)
T2 sequence (Q8TD08 whole entry): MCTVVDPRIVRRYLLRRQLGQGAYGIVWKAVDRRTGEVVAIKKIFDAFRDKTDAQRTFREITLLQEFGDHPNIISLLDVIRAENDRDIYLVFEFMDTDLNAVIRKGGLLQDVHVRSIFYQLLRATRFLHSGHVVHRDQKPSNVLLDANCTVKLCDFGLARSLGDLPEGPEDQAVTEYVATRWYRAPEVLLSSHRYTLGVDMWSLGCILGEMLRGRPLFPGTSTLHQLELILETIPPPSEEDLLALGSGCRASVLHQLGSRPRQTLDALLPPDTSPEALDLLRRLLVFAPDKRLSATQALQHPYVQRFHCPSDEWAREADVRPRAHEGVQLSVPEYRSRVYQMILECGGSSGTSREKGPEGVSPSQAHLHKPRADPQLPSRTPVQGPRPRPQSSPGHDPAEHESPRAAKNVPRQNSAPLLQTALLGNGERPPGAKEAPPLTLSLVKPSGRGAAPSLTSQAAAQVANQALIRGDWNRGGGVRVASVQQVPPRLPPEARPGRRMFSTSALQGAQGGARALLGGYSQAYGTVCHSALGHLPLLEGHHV

[6] = target: T3, Serine/threonine-protein kinase TAO2 (Homo sapiens, UniProt Q9UL54)
T3 sequence (Q9UL54 whole entry): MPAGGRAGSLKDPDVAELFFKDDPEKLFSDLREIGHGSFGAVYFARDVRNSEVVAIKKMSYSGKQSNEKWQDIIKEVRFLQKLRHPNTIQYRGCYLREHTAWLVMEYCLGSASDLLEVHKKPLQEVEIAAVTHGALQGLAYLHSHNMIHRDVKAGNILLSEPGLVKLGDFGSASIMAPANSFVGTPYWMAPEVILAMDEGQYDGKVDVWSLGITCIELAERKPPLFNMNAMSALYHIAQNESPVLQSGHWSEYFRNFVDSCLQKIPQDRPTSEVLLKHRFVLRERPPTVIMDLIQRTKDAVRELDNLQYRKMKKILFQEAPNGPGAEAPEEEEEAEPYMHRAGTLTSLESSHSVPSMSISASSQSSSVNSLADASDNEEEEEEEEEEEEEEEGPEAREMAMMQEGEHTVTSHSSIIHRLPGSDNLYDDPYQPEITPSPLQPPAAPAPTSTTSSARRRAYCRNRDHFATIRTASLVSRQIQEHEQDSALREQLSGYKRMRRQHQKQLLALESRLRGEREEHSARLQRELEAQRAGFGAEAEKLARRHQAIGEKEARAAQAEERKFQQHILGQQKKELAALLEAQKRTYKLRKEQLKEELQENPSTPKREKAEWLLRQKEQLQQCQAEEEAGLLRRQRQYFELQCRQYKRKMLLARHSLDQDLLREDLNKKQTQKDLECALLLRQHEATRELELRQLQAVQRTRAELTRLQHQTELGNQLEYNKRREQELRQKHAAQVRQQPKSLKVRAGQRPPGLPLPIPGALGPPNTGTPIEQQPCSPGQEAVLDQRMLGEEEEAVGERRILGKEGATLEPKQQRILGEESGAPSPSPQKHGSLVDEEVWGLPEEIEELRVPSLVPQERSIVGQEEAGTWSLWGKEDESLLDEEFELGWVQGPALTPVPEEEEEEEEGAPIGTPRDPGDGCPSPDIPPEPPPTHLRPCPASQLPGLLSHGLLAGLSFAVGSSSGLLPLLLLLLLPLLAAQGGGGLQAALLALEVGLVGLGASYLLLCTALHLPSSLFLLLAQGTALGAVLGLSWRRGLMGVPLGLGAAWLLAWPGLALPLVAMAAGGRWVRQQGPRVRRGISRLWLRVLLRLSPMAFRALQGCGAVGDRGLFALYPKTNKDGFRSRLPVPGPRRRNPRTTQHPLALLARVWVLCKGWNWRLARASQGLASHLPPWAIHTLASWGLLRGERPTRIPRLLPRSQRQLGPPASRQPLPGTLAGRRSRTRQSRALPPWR
Also: in the data inactive means no Kd found up to 30 µM.

Serine/threonine-protein kinase PAK 4, sequence (O96013 whole entry): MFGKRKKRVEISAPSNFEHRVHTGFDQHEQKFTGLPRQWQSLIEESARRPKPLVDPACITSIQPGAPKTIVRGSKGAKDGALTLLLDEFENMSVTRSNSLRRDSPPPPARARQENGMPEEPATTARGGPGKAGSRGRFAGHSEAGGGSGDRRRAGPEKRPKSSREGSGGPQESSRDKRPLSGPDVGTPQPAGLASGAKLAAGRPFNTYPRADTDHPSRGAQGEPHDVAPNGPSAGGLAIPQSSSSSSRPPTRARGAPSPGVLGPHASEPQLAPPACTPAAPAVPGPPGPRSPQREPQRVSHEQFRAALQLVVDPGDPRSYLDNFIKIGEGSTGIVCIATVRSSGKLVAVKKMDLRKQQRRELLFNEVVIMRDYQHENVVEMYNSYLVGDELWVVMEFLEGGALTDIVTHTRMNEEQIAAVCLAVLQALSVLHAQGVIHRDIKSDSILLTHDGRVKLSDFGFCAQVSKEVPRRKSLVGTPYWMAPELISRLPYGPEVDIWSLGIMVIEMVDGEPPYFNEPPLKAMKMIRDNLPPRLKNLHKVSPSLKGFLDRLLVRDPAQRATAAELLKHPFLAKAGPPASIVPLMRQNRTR
Putative heat shock protein HSP 90-beta 2, sequence (Q58FF8 whole entry): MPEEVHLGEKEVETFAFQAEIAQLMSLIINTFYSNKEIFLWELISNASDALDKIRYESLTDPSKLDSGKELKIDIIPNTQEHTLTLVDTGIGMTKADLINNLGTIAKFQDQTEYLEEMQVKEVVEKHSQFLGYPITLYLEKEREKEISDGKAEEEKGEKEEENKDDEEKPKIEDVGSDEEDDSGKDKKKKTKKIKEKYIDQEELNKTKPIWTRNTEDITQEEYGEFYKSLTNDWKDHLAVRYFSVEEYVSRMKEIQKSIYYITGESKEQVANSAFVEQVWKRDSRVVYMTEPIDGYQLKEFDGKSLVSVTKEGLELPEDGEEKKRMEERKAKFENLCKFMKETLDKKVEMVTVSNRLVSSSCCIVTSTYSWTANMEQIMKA

Row | SMILES | Kd [1] | Kd [2] | Kd (Actin-related protein 2) | Kd [3] | Kd [4] | Kd (Deoxycytidine kinase) | Kd (Ephrin type-A receptor 4) | Kd (Adenosine kinase) | Kd [5] | Kd [6]
1 | FC(F)(F)c1ccc(/C=C/c2nc(COc3ccc(CCCCn4ccnn4)cc3)co2)cc1 [MUBRITINIB] | > 30 µM (inactive) | > 30 µM (inactive) | > 30 µM (inactive) | > 30 µM (inactive) | > 30 µM (inactive) | > 30 µM (inactive) | > 30 µM (inactive) | > 30 µM (inactive) | > 30 µM (inactive) | > 30 µM (inactive)
2 | COc1ncc(-c2ccc3nccc(-c4ccnnc4)c3c2)cc1NS(=O)(=O)c1ccc(F)cc1F [OMIPALISIB] | > 30 µM (inactive) | > 30 µM (inactive) | > 30 µM (inactive) | > 30 µM (inactive) | > 30 µM (inactive) | > 30 µM (inactive) | > 30 µM (inactive) | > 30 µM (inactive) | > 30 µM (inactive) | > 30 µM (inactive)
3 | CCCCCCCCCCCCCCCCCCOP(=O)([O-])OC1CC[N+](C)(C)CC1 [PERIFOSINE] | > 30 µM (inactive) | > 30 µM (inactive) | > 30 µM (inactive) | > 30 µM (inactive) | > 30 µM (inactive) | > 30 µM (inactive) | > 30 µM (inactive) | > 30 µM (inactive) | > 30 µM (inactive) | > 30 µM (inactive)
4 | Cc1cnc(NC(=O)Nc2cc(Br)c(C)cc2OC[C@@H]2CNCCO2)cn1 [RABUSERTIB] | > 30 µM (inactive) | > 30 µM (inactive) | > 30 µM (inactive) | 3.82 µM | > 30 µM (inactive) | > 30 µM (inactive) | > 30 µM (inactive) | > 30 µM (inactive) | > 30 µM (inactive) | > 30 µM (inactive)
5 | CNC(=O)c1cc(Oc2ccc(NC(=O)Nc3cc(C(C)(C)C)nn3-c3ccc4ncccc4c3)c(F)c2)ccn1 [REBASTINIB] | > 30 µM (inactive) | > 30 µM (inactive) | > 30 µM (inactive) | > 30 µM (inactive) | > 30 µM (inactive) | > 30 µM (inactive) | > 30 µM (inactive) | > 30 µM (inactive) | 0.276 µM (active) | > 30 µM (inactive)
6 | N#CC1(c2ccc(NC(=O)c3cccnc3NCc3ccncc3)cc2)CCCC1 [RIVOCERANIB] | > 30 µM (inactive) | > 30 µM (inactive) | > 30 µM (inactive) | > 30 µM (inactive) | > 30 µM (inactive) | > 30 µM (inactive) | > 30 µM (inactive) | > 30 µM (inactive) | > 30 µM (inactive) | > 30 µM (inactive)
7 | O=c1[nH]ccc2cc(OC3CCNCC3)ccc12 [SAR-407899 FREE BASE] | > 30 µM (inactive) | > 30 µM (inactive) | > 30 µM (inactive) | > 30 µM (inactive) | > 30 µM (inactive) | > 30 µM (inactive) | > 30 µM (inactive) | > 30 µM (inactive) | > 30 µM (inactive) | > 30 µM (inactive)
